{
  "source": "ChEMBL document CHEMBL1201862",
  "about": "“PubChem BioAssay data set” (2004)",
  "key": {"[1]": {"biological_target": "T1, RNA-binding protein pos-1 (Caenorhabditis elegans, UniProt G5EF15)", "T1 sequence (G5EF15 whole entry)": "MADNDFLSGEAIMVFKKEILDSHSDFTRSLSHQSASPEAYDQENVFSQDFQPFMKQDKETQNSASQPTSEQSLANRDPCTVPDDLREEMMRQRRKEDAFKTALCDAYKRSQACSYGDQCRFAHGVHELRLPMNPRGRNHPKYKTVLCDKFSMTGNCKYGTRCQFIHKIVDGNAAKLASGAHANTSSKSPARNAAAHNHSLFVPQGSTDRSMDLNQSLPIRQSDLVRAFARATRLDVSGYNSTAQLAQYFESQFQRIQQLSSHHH", "assay": "inhibitors of POS-1/mex-3 RNA binding, dose response, biochemical, fluorescence polarization (AID 1964);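 also: purified POS-1 fused to maltose binding protein made in E. coli; potency of compounds blocking POS-1 binding to fluorescent RNA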"}, "Aspartyl aminopeptidase": {"biological_target": "T2, Aspartyl aminopeptidase (Plasmodium falciparum 3D7, UniProt Q8I2J3)", "T2 sequence (Q8I2J3 whole entry)": "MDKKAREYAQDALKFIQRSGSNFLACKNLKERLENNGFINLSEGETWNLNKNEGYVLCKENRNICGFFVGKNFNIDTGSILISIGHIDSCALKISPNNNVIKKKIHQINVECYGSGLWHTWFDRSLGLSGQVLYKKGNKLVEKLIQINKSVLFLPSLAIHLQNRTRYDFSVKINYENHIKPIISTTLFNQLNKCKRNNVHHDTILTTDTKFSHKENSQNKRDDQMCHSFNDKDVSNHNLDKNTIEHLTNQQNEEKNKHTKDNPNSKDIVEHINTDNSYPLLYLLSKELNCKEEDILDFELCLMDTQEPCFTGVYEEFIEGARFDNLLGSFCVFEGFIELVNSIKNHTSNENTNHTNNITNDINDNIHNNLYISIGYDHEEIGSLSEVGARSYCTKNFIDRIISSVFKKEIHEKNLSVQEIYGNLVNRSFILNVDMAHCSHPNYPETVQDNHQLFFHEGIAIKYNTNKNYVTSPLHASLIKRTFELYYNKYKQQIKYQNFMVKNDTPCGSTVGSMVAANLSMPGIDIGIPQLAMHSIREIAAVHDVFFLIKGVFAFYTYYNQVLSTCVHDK"}, "Procathepsin L": {"biological_target": "Procathepsin L (Homo sapiens, UniProt P07711)", "sequence (P07711 whole entry)": "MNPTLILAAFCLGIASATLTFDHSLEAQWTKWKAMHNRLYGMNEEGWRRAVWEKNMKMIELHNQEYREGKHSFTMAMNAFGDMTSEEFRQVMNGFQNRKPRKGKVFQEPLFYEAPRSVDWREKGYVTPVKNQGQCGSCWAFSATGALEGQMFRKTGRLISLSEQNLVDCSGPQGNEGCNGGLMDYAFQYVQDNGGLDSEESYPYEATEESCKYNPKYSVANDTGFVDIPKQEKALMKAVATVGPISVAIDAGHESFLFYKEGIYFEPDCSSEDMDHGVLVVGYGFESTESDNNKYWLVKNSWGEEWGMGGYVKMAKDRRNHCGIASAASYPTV"}, "[2]": {"biological_target": "T3, Zinc finger protein mex-5 (Caenorhabditis elegans, UniProt Q9XUB2)", "T3 sequence (Q9XUB2 whole entry)": "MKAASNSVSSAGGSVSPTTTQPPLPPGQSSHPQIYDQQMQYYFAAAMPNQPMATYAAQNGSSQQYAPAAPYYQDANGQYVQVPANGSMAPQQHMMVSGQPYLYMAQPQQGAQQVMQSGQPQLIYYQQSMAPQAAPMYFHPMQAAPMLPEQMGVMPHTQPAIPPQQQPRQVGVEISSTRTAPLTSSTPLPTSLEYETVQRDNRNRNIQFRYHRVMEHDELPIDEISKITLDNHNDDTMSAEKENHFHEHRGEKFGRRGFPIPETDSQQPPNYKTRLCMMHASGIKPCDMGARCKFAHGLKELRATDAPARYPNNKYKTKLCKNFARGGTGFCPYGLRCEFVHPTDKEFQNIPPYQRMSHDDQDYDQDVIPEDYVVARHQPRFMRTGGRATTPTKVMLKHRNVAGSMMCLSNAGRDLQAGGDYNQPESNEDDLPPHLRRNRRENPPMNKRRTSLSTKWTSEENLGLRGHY", "assay": "MEX-5/TCR-2 RNA interaction inhibitors, dose response, biochemical, C. elegans, fluorescence polarization (AID 1960)"}, "Large T antigen": {"biological_target": "Large T antigen (Simian virus 40, UniProt P03070)", "sequence (P03070 whole entry)": "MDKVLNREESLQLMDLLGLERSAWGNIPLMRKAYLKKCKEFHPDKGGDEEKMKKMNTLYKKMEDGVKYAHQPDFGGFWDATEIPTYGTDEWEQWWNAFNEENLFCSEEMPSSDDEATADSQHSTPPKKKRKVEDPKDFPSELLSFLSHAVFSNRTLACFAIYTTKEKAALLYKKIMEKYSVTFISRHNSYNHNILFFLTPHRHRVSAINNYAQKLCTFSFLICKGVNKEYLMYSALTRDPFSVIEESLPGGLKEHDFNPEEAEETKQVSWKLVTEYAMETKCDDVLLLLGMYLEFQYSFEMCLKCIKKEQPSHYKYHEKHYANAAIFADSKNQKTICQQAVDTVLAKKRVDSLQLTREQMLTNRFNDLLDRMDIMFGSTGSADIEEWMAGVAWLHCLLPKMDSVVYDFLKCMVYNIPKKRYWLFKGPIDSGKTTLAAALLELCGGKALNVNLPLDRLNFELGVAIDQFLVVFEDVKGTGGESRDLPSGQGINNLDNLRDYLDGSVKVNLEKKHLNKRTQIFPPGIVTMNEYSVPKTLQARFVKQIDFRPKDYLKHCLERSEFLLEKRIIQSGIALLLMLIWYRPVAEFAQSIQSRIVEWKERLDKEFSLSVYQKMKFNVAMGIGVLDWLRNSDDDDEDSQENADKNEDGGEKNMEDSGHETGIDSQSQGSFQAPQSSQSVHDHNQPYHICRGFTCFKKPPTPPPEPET", "type": "functional, Betapolyomavirus macacae"}, "[3]": {"biological_target": "Intestinal-type alkaline phosphatase (Mus musculus, UniProt P24822)", "sequence (P24822 whole entry)": "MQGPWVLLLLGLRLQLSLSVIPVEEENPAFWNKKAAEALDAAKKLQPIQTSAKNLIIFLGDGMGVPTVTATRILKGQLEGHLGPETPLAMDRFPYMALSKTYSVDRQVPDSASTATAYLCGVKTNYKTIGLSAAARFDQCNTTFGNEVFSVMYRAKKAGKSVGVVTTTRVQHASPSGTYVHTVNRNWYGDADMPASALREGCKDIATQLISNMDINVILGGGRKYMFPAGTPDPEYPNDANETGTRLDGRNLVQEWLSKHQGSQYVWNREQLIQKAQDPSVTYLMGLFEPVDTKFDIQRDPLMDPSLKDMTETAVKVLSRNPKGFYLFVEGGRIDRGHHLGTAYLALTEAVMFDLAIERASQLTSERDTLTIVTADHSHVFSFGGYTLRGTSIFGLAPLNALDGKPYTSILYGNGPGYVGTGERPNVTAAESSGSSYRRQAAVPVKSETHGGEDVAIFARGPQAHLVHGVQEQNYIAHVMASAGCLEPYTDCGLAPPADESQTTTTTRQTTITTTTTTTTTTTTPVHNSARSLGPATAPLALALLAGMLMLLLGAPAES", "assay": "PubChem AID 488785", "type": "functional"}, "[4]": {"biological_target": "FAD-linked sulfhydryl oxidase ALR (Homo sapiens, UniProt P55789)", "sequence (P55789 whole entry)": "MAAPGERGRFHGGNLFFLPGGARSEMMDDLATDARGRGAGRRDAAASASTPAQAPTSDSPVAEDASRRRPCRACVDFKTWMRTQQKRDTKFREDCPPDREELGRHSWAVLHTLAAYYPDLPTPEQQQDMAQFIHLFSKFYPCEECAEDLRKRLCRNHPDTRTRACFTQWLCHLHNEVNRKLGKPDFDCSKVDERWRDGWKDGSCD", "assay": "inhibitors of human ALR sulfhydryl oxidase, dose response, biochemical, H2O2 detection, luminescence, cherry-pick (AID 493248)"}, "[5]": {"biological_target": "T4, Alkaline phosphatase, tissue-nonspecific isozyme (Homo sapiens, UniProt P05186)", "T4 sequence (P05186 whole entry)": "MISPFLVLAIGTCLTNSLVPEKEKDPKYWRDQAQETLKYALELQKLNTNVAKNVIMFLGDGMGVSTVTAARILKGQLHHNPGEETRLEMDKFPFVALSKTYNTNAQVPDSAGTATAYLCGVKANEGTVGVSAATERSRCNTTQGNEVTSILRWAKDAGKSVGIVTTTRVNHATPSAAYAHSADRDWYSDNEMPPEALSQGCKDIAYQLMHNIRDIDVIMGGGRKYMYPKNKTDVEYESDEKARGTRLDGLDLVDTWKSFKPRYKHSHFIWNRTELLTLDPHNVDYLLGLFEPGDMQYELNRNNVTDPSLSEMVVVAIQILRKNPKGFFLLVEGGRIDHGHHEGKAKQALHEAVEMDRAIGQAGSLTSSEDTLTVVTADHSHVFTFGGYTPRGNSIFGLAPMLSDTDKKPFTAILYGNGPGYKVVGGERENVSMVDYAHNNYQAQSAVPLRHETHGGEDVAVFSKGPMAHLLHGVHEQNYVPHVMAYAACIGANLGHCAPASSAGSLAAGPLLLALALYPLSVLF", "assay": "TNAP enzyme inhibition by screening hits, dose response, selectivity assay for mouse IAP inhibitor project, biochemical, human TNAP, uHTS hits (AID 488906)", "type": "functional"}, "[6]": {"biological_target": "Intestinal-type alkaline phosphatase (Homo sapiens, UniProt P09923)", "sequence (P09923 whole entry)": "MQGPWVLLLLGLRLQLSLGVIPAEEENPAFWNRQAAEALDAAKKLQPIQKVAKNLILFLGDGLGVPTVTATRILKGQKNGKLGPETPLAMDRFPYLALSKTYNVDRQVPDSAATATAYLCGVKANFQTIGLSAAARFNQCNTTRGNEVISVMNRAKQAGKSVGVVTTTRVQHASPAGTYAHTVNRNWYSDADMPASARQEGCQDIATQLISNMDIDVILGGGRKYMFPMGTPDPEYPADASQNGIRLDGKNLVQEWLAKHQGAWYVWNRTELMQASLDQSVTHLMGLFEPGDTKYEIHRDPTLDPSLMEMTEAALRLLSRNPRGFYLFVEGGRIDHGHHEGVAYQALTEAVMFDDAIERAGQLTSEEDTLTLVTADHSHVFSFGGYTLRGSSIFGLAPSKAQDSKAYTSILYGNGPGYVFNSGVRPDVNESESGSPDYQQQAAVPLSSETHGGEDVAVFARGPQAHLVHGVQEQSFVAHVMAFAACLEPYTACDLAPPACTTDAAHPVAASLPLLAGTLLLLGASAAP", "assay": "inhibition of human intestinal alkaline phosphatase – biochemical, dose response (AID 488876)", "type": "functional"}, "[7]": {"biological_target": "T5, Carboxy-terminal domain RNA polymerase II polypeptide A small phosphatase 1 (Homo sapiens, UniProt Q9GZU7)", "T5 sequence (Q9GZU7 whole entry)": "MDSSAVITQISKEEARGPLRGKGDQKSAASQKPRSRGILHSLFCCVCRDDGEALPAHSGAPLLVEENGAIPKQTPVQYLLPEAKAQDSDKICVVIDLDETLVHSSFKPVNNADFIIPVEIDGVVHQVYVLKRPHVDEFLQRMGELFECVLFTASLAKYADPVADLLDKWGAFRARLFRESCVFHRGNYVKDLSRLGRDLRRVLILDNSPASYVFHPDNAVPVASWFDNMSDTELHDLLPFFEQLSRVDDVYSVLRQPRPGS", "assay": "inhibitors of CTDSP1, concentration-response testing, biochemical assay, absorbance-based, actives from ultra-high-throughput screening (AID 540297)", "type": "functional"}, "[8]": {"biological_target": "T6, Heat shock factor protein 1 (Mus musculus, UniProt P38532)", "T6 sequence (P38532 whole entry)": "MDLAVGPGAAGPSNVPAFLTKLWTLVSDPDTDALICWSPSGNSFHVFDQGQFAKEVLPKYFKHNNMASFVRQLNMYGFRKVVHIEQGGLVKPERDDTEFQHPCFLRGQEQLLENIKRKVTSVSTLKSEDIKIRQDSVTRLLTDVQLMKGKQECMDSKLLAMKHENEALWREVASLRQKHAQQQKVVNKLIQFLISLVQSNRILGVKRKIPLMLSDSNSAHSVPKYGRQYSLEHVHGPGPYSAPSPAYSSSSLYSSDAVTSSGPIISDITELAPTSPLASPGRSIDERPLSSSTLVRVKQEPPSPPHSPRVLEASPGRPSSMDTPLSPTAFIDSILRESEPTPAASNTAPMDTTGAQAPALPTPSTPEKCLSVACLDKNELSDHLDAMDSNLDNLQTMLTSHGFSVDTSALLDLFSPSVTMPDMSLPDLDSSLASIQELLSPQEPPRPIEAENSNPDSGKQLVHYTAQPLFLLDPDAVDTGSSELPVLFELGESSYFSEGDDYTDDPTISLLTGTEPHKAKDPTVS", "assay": "HSF1 potentiators in luciferase reporter cells, confirmation, cell-based, NIH3T3, luminescence, dose retest (AID 435004);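 also: stress induced by proteasome inhibitor MG132 added 30 min after compound; actives raise luminescence as potentiators of the MG132 stress response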", "type": "functional"}, "Genome polyprotein": {"biological_target": "Genome polyprotein (dengue virus type 2, UniProt P29990)", "sequence (P29990 2492-3391 limits assumed)": "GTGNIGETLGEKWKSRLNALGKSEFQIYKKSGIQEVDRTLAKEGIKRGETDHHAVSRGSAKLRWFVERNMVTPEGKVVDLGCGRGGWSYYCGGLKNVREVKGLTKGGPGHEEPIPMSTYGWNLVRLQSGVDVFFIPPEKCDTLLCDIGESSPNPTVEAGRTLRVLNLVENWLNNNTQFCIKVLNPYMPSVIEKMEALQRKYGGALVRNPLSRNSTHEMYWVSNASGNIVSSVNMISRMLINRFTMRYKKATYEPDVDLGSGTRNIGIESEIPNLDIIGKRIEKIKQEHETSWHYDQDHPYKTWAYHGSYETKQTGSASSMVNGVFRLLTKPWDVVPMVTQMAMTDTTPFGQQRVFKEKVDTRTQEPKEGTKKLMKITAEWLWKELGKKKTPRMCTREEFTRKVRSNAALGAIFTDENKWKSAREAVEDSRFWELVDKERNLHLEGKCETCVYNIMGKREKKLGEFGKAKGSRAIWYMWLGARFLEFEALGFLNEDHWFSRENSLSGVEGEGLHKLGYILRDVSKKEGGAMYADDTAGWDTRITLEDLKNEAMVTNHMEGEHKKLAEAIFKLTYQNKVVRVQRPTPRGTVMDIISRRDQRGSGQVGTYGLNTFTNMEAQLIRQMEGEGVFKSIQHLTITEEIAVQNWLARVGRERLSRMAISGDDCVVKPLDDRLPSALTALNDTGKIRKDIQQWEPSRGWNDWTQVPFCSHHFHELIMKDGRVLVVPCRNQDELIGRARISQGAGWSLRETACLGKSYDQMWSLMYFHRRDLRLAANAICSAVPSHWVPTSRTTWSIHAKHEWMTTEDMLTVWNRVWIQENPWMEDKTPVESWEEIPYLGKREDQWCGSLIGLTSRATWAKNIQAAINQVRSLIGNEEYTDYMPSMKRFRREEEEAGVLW", "assay": "Dengue-2 NS5 methyltransferase inhibitors, primary screen, biochemical, confirmation dose response (AID 588689)", "type": "functional"}, "Tumor necrosis factor": {"biological_target": "Tumor necrosis factor (Homo sapiens, UniProt P01375)", "sequence (P01375 whole entry)": "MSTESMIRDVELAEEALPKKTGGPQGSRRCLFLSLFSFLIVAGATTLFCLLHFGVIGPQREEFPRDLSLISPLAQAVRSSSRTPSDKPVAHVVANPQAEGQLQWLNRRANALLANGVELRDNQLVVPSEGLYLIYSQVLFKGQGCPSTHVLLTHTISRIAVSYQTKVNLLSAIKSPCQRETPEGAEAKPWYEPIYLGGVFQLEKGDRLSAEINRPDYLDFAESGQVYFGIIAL", "assay": "TNFa-triggered NF-kB activation inhibitors, SAR follow-up, cell-based, revised (AID 2337)", "type": "functional"}, "[9]": {"biological_target": "T7, Nucleotide-binding oligomerization domain-containing protein 1 (Homo sapiens, UniProt Q9Y239)", "T7 sequence (Q9Y239 whole entry)": "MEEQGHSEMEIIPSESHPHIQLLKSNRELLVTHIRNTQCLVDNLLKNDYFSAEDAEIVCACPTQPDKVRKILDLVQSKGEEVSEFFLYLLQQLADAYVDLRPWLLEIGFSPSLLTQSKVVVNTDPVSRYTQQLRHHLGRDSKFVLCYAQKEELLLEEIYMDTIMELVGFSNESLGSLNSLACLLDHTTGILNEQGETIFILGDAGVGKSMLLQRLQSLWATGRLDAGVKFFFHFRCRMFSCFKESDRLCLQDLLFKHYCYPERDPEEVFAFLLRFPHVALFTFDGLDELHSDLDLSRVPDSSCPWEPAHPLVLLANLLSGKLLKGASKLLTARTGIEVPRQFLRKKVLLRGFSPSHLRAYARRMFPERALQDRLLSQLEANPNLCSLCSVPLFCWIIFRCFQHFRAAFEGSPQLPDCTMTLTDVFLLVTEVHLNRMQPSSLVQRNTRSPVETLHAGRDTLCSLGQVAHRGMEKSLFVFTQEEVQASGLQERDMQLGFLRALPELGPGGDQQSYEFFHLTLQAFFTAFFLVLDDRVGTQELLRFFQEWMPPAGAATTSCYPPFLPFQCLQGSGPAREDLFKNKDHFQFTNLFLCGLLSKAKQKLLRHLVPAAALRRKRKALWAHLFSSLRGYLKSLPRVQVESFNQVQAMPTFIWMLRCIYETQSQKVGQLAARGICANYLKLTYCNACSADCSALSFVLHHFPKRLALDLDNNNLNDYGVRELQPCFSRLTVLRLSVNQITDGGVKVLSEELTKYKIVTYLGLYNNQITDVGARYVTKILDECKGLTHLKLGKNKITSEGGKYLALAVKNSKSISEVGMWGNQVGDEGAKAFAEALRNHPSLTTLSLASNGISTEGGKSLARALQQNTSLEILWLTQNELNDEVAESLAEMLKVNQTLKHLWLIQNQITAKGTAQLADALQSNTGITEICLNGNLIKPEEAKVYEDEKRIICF", "assay": "NOD1 signaling inhibitors, SAR follow-up, revised (AID 2333)", "type": "functional"}, "HEK293": {"system": "HEK293", "assay": "cells", "settings": "Homo sapiens"}},
  "note": "Activity calls are given as the source filed them.",
  "data": [
    {"compound": "O=[N+]([O-])c1c(O)nc(/C=C\\c2ccc(O)c(O)c2)nc1O", "values": [
      {"measurement": "EC50", "setting": "[1]", "value": "250 µM (active)"},
      {"measurement": "IC50", "setting": "Aspartyl aminopeptidase", "value": "670 nM (active)"},
      {"measurement": "IC50", "setting": "Procathepsin L", "value": "> 59.6 µM (not active)"},
      {"measurement": "EC50", "setting": "[2]", "value": "179 µM (active)"},
      {"measurement": "IC50", "setting": "Large T antigen", "value": "4.72 µM (active)"},
      {"measurement": "IC50", "setting": "[3]", "value": "1.04 µM (active)"},
      {"measurement": "AC50", "setting": "[4]", "value": "1.05 µM (active)"},
      {"measurement": "IC50", "setting": "[5]", "value": "1.12 µM (active)"},
      {"measurement": "IC50", "setting": "[6]", "value": "4.34 µM (active)"},
      {"measurement": "IC50", "setting": "[7]", "value": "36.1 µM (active)"}
    ]},
    {"compound": "Cc1ccc(Cl)c2c(C3=NC(=S)NC3=O)c(O)[nH]c12", "values": [
      {"measurement": "EC50", "setting": "[1]", "value": "14.3 µM (active)"},
      {"measurement": "EC50", "setting": "[2]", "value": "0.294 µM (inconclusive)"},
      {"measurement": "IC50", "setting": "[3]", "value": "0.206 µM (active)"},
      {"measurement": "EC50", "setting": "[8]", "value": "> 260 µM (inactive)"},
      {"measurement": "IC50", "setting": "[5]", "value": "0.211 µM (active)"},
      {"measurement": "IC50", "setting": "[6]", "value": "> 100 µM (inactive)"},
      {"measurement": "IC50", "setting": "Genome polyprotein", "value": "61.5 µM (active)"}
    ]},
    {"compound": "CC1Cc2cc(S(=O)(=O)N3CCN(c4ccccc4)CC3)ccc2N1C(=O)C1CC1", "note": "(stereo not given)", "values": [
      {"measurement": "IC50", "setting": "Tumor necrosis factor", "value": "15.3 µM (active)"},
      {"measurement": "IC50", "setting": "[9]", "value": "> 20 µM (inactive)"},
      {"measurement": "IC50", "setting": "HEK293", "value": "> 20 µM (inactive)"}
    ]}
  ]
}
